Assay results taken from patent US10988477B2 (Merck Patent GmbH, priority 2018, dated 2021).

Assays:
GCN2 kinase = GCN2 kinase (Homo sapiens, UniProt Q9P2K8); test: GCN2 enzyme inhibition assay (Transcreener ADP2 fluorescence polarization); type: biochemical; details: Enzyme activity for compounds of Formula IV; Ki(app), 280 μM ATP, 25° C.
In short: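 Inhibition of 4 nM GCN2 was measured with compound up to 8 μM final, ATP 280 μM and (RS)7 peptide 200 μM over a 1 h, 25 °C reaction. ADP FP readout; IC50 and Ki(app) calculated from percent inhibition.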

[1] = target: intracellular GCN2 (phosphorylation of the GCN2 substrate eIF2α) (Homo sapiens, UniProt Q9P2K8); test: GCN2 cellular inhibition assay (AlphaScreen SureFire P-eIF2α Ser51, borrelidin-treated U2OS cells); type: cell-based; details: compounds of Formula IV; biomarker assay, phosphorylated eIF2α Ser51 in borrelidin-treated U2OS cells
In short: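 U2OS cells adhered overnight, then treated with compounds (4-fold serial dilutions from 40 μM final) plus borrelidin 10 μM final for 1 h at 37 °C. Lysate eIF2α Ser51 phosphorylation measured by AlphaScreen SureFire. Percent inhibition calculated relative to borrelidin-only wells.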

Sequence of GCN2 kinase (Q9P2K8 whole entry): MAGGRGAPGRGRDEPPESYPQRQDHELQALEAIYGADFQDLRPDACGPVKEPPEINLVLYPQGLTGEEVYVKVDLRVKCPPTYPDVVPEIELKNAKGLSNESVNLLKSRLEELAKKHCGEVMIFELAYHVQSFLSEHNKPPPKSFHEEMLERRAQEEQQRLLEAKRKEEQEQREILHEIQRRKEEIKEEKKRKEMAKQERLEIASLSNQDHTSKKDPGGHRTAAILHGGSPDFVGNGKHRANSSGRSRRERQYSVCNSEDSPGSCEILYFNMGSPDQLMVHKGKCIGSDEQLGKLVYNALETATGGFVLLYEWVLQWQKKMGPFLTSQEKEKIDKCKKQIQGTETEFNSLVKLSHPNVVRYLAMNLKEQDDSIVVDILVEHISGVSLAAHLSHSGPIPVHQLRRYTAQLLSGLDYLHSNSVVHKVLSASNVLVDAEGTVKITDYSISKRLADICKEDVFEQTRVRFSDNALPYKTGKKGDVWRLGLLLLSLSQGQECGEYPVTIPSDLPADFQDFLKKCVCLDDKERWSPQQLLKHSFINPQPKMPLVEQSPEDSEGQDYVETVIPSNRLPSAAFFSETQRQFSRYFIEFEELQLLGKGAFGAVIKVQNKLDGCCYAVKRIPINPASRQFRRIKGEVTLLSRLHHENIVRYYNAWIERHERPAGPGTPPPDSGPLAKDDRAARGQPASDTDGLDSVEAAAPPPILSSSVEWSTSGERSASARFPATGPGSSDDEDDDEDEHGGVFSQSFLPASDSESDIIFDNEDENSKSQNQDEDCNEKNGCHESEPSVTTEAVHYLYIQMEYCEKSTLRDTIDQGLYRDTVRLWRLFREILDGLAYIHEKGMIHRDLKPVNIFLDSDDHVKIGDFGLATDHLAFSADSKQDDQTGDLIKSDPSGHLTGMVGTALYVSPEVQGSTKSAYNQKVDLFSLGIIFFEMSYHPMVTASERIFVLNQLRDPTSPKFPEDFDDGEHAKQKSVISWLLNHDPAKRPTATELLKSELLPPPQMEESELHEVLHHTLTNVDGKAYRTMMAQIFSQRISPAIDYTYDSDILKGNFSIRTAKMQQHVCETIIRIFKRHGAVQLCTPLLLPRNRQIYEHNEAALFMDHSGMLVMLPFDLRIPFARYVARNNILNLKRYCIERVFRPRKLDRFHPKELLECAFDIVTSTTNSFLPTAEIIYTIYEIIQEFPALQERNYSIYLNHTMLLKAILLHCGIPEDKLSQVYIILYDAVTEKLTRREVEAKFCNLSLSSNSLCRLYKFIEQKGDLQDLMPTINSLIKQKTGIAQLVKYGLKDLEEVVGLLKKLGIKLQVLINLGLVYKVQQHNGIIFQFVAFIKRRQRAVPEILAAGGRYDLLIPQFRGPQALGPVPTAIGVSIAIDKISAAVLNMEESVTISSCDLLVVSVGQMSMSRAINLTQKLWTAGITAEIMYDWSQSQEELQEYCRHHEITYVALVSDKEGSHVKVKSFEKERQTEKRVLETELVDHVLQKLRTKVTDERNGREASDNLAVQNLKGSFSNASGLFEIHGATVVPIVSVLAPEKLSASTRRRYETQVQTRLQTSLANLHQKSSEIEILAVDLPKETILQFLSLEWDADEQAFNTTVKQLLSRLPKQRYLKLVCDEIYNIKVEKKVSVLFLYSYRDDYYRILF
Sequence of intracellular GCN2 (phosphorylation of the GCN2 substrate eIF2α) (Q9P2K8 whole entry): as above

Ki (GCN2 kinase) [nM]	IC50 [1] [nM]	Compound
100 to 1000	> 5000	NS(=O)(=O)N[C@@H]1CCCN(c2ccnc(-c3cnc4cnc(C(F)F)cn34)n2)C1 [IV-181, 6-(Difluoromethyl)-3-[4-[(3R)-3-(sulfamoylamino)-1-piperidyl]pyrimidin-2-yl]imidazo[1,2-a]pyrazine]
100 to 1000	> 5000	CC(=O)N1CCN(c2cncc(-c3cnc4cnc(C(N)=O)cn34)n2)CC1 [IV-183, 3-(6-(4-Acetylpiperazin-1-yl)pyrazin-2-yl)imidazo[1,2-a]pyrazine-6-carboxamide]
10 to 100	500 to 5000	CC1CN(c2ccnc(-c3cnc4cnc(C(F)(F)F)cn34)n2)CC(c2cn[nH]c2)N1 (stereo not drawn) [IV-189, 3-(4-(3-Methyl-5-(1H-pyrazol-4-yl)piperazin-1-yl)pyrimidin-2-yl)-6-(trifluoromethyl)imidazo[1,2-a]pyrazine]
< 10	< 500	CC1CN(c2ccnc(-c3cnc4cnc(Cl)cn34)n2)CC(c2cn[nH]c2)O1 (stereo not drawn) [IV-193, 4-(2-(6-Chloroimidazo[1,2-a]pyrazin-3-yl)pyrimidin-4-yl)-2-methyl-6-(1H-pyrazol-4-yl)morpholine]
< 10	500 to 5000	FC(F)(F)c1cn2c(-c3nccc(N4CCNC(c5cn[nH]c5)C4)n3)cnc2cn1 (stereo not drawn) [IV-211, 3-(4-(3-(1H-Pyrazol-4-yl)piperazin-1-yl)pyrimidin-2-yl)-6-(trifluoromethyl)imidazo[1,2-a]pyrazine]
< 10	< 500	C[C@H]1CN(c2ccnc(-c3cnc4cnc(C(F)(F)F)cn34)n2)[C@@H](C)[C@@H](c2cn[nH]c2)N1 [IV-224, 3-(4-((2S,3R,5S)-2,5-dimethyl-3-(1H-pyrazol-4-yl)piperazin-1-yl)pyrimidin-2-yl)-6-(trifluoromethyl)imidazo[1,2-a]pyrazine]
< 10	500 to 5000	CC1CN(c2ccnc(-c3cnc4cnc(C#N)cn34)n2)C(C)C(c2cn[nH]c2)N1 (stereo not drawn) [IV-305, 3-(4-(2,5-Dimethyl-3-(1H-pyrazol-4-yl)piperazin-1-yl)pyrimidin-2-yl)imidazo[1,2-a]pyrazine-6-carbonitrile]
< 10	500 to 5000	CC1NC(c2cn[nH]c2)C(C)N(c2ccnc(-c3cnc4cnc(C(F)(F)F)cn34)n2)C1C (stereo not drawn) [IV-323, 6-(Trifluoromethyl)-3-(4-(2,3,6-trimethyl-5-(1H-pyrazol-4-yl)piperazin-1-yl)pyrimidin-2-yl)imidazo[1,2-a]pyrazine]
10 to 100	> 5000	N#Cc1cn2c(-c3nccc(N4CCCC(c5c[nH]cn5)C4)n3)cnc2cn1 (stereo not drawn) [IV-341, 3-(4-(3-(1H-Imidazol-4-yl)piperidin-1-yl)pyrimidin-2-yl)imidazo[1,2-a]pyrazine-6-carbonitrile]
< 10	< 500	Brc1cn2c(-c3nccc(N4CCCC(c5cn[nH]c5)C4)n3)cnc2cn1 (stereo not drawn) [IV-346, 3-(4-(3-(1H-Pyrazol-4-yl)piperidin-1-yl)pyrimidin-2-yl)-6-bromoimidazo[1,2-a]pyrazine]
100 to 1000	> 5000	Clc1cn2c(-c3nccc(N4CCNC(c5c[nH]cn5)C4)n3)cnc2cn1 (stereo not drawn) [IV-347, 3-(4-(3-(1H-Imidazol-4-yl)piperazin-1-yl)pyrimidin-2-yl)-6-chloroimidazo[1,2-a]pyrazine]
100 to 1000	500 to 5000	CC1(C)CN(c2ccnc(-c3cnc4cnc(Cl)cn34)n2)CC(c2cn[nH]c2)N1 (stereo not drawn) [IV-353, 6-Chloro-3-(4-(3,3-dimethyl-5-(1H-pyrazol-4-yl)piperazin-1-yl)pyrimidin-2-yl)imidazo[1,2-a]pyrazine]
10 to 100	> 5000	CC1(C)CN(c2ccnc(-c3cnc4cnc(Br)cn34)n2)CC(c2cn[nH]c2)N1 (stereo not drawn) [IV-354, 6-Bromo-3-(4-(3,3-dimethyl-5-(1H-pyrazol-4-yl)piperazin-1-yl)pyrimidin-2-yl)imidazo[1,2-a]pyrazine]
< 10	< 500	OCC1CC(c2cn[nH]c2)CN(c2ccnc(-c3cnc4cnc(C(F)(F)F)cn34)n2)C1 (stereo not drawn) [IV-359, (5-(1H-Pyrazol-4-yl)-1-(2-(6-(trifluoromethyl)imidazo[1,2-a]pyrazin-3-yl)pyrimidin-4-yl)piperidin-3-yl)methanol]
10 to 100	500 to 5000	Brc1cn2c(-c3nccc(N4CCNC(c5cn[nH]c5)C4)n3)cnc2cn1 (stereo not drawn) [IV-371, 3-(4-(3-(1H-Pyrazol-4-yl)piperazin-1-yl)pyrimidin-2-yl)-6-bromoimidazo[1,2-a]pyrazine]
< 10	500 to 5000	CC1CN(c2ccnc(-c3cnc4cnc(Br)cn34)n2)C(C)C(c2c[nH]cn2)N1 (stereo not drawn) [IV-373, 3-(4-(3-(1H-Imidazol-4-yl)-2,5-dimethylpiperazin-1-yl)pyrimidin-2-yl)-6-bromoimidazo[1,2-a]pyrazine]
< 10	< 500	FC(F)(F)c1cn2c(-c3nccc(N4CCCC(c5cn[nH]n5)C4)n3)cnc2cn1 (stereo not drawn) [IV-378, 3-(4-(3-(2H-1,2,3-Triazol-4-yl)piperidin-1-yl)pyrimidin-2-yl)-6-(trifluoromethyl)imidazo[1,2-a]pyrazine]

More lines, now with the values behind:

Compound	Ki (GCN2 kinase) [nM]	IC50 [1] [nM]
CC(=O)N1CCN(c2nccc(-c3cnc4cnc(C(N)=O)cn34)n2)CC1 [IV-182, 3-(2-(4-Acetylpiperazin-1-yl)pyrimidin-4-yl)imidazo[1,2-a]pyrazine-6-carboxamide]	10 to 100	500 to 5000
CC(=O)N1CCN(c2cccc(-c3cnc4cnc(C(N)=O)cn34)n2)CC1 [IV-184, 3-(6-(4-Acetylpiperazin-1-yl)pyridin-2-yl)imidazo[1,2-a]pyrazine-6-carboxamide]	10 to 100	< 500
CC1CN(c2ccnc(-c3cnc4cnc(C#N)cn34)n2)CC(c2cn[nH]c2)O1 (stereo not drawn) [IV-194, 3-(4-(2-Methyl-6-(1H-pyrazol-4-yl)morpholino)pyrimidin-2-yl)imidazo[1,2-a]pyrazine-6-carbonitrile]	< 10	< 500
CC1CN(c2ccnc(-c3cnc4cnc(C(F)(F)F)cn34)n2)CC(c2cn[nH]c2)N1C (stereo not drawn) [IV-195, 3-(4-(3,4-Dimethyl-5-(1H-pyrazol-4-yl)piperazin-1-yl)pyrimidin-2-yl)-6-(trifluoromethyl)imidazo[1,2-a]pyrazine]	10 to 100	500 to 5000
NC(=O)c1cn2c(-c3cccc(N4CCCCC4)n3)cnc2cn1 [IV-204, 3-(6-(Piperidin-1-yl)pyridin-2-yl)imidazo[1,2-a]pyrazine-6-carboxamide]	10 to 100	> 5000
CC(=O)N1CCN(c2cccc(-c3cnc4cnc(-n5cccn5)cn34)n2)CC1 [IV-209, 1-(4-(6-(6-(1H-Pyrazol-1-yl)imidazo[1,2-a]pyrazin-3-yl)pyridin-2-yl)piperazin-1-yl)ethan-1-one]	< 10	500 to 5000
NC(=O)c1cn2c(-c3cccc(N4CCN5C(=O)CCCC5C4)n3)cnc2cn1 (stereo not drawn) [IV-210, 3-(6-(6-Oxooctahydro-2H-pyrido[1,2-a]pyrazin-2-yl)pyridin-2-yl)imidazo[1,2-a]pyrazine-6-carboxamide]	< 10	500 to 5000
CC1CN(c2ccnc(-c3cnc4cnc(C(F)(F)F)cn34)n2)C(C)C(c2cn[nH]c2)N1 (stereo not drawn) [IV-222, 3-(4-(2,5-Dimethyl-3-(1H-pyrazol-4-yl)piperazin-1-yl)pyrimidin-2-yl)-6-(trifluoromethyl)imidazo[1,2-a]pyrazine]	< 10	< 500
NC(=O)c1cn2c(-c3cccc(-c4cccc5[nH]ccc45)n3)cnc2cn1 [IV-225, 3-(6-(1H-Indol-4-yl)pyridin-2-yl)imidazo[1,2-a]pyrazine-6-carboxamide]	10 to 100	500 to 5000
NC(=O)c1cn2c(-c3cccc(N4CCN5C(=O)CCC[C@H]5C4)n3)cnc2cn1 [IV-228, (S)-3-(6-(6-Oxooctahydro-2H-pyrido[1,2-a]pyrazin-2-yl)pyridin-2-yl)imidazo[1,2-a]pyrazine-6-carboxamide]	10 to 100	500 to 5000
N#Cc1cn2c(-c3cccc(-c4cccc5[nH]ccc45)n3)cnc2cn1 [IV-234, 3-(6-(1H-Indol-4-yl)pyridin-2-yl)imidazo[1,2-a]pyrazine-6-carbonitrile]	10 to 100	> 5000
CC1CN(c2ccnc(-c3cnc4cnc(Br)cn34)n2)C(C)C(c2cn[nH]c2)N1 (stereo not drawn) [IV-279, 6-Bromo-3-(4-(2,5-dimethyl-3-(1H-pyrazol-4-yl)piperazin-1-yl)pyrimidin-2-yl)imidazo[1,2-a]pyrazine]	< 10	< 500
Brc1cn2c(-c3nccc(N4CCCC(c5c[nH]cn5)C4)n3)cnc2cn1 (stereo not drawn) [IV-340, 3-(4-(3-(1H-Imidazol-4-yl)piperidin-1-yl)pyrimidin-2-yl)-6-bromoimidazo[1,2-a]pyrazine]	< 10	500 to 5000
CC1CN(c2ccnc(-c3cnc4cnc(Cl)cn34)n2)C(C)C(c2c[nH]cn2)N1 (stereo not drawn) [IV-349, 3-(4-(3-(1H-Imidazol-4-yl)-2,5-dimethylpiperazin-1-yl)pyrimidin-2-yl)-6-chloroimidazo[1,2-a]pyrazine]	10 to 100	500 to 5000
Cc1nc(C2CCCN(c3ccnc(-c4cnc5cnc(Br)cn45)n3)C2)c[nH]1 (stereo not drawn) [IV-355, 6-Bromo-3-(4-(3-(2-methyl-1H-imidazol-4-yl)piperidin-1-yl)pyrimidin-2-yl)imidazo[1,2-a]pyrazine]	< 10	500 to 5000
Brc1cn2c(-c3nccc(N4CCCC(c5c[nH]cn5)C4)n3)cnc2cn1 (stereo not drawn) [IV-363, 3-(4-(3-(1H-Imidazol-4-yl)piperidin-1-yl)pyrimidin-2-yl)-6-bromoimidazo[1,2-a]pyrazine]	< 10	< 500
